Data as given in PubChem BioAssay AID2060496 (Molecular Pharmacology Branch, DTP, NCI, 2025).
Where “and” joins values, the source holds several entries; their conditions need not be identical. Equal entries are not always repeated.

Tested on: 276233-004-R-J1-PDC complex spheroid viability
Assay: Anticancer human tumor 276233-004-R-J1-PDC patient-derived colon adenocarcinoma cell line growth inhibition [GQUAD]
Conditions: for viability, T/C: stronger effect = lower value; active = viability on the fitted dose curve at most 10% of control; inactive = the rest
Excerpt: DNA G-quadruplex Stabilizer Agents in Combinations in Complex Spheroids
A high-throughput screen of multi-cell type tumor spheroids was designed to identify active combinations of DNA G-quadruplex stabilizer agents and targeted small molecules. Complex spheroids include a stromal component modeled by human endothelial cells (HUVEC) and fibroblasts modeled by human mesenchymal stem cells (MSCs). The concentration ranges selected for each drug and investigational agent were based upon clinically achievable concentrations if the clinical Cmax of the agent was known.
Compounds. The drugs and investigational agents: pidnarulex (CX-5461; NSC782164), APTO-253 (NSC789042), BRACO-19 (NSC847499), peposertib (NSC802822), ceralasertib (NSC780249), elimusertib (NSC800525), camonsertib (NSC841442), AZD-1390 (NSC803789), olaparib (NSC753686), talazoparib (NSC767125), ART-558 (NSC835418), sotorasib (NSC818433), MRTX-1133 (NSC836407), SN-38 (NSC673596), topotecan (NSC609699), etoposide (NSC141540), doxorubicin (NSC123127), gemcitabine (NSC613327), 5-fluorouracil (NSC19893), paclitaxel (NSC125973), vemurafenib (NSC761431), panobinostat (NSC761190), R-306465 (JNJ-16241199; NSC773264), adavosertib (NSC754352), TP-3654 (NSC805149), carboplatin (NSC241240), KSQ-4279 (NSC840948), and staurosporine (NSC755774) were obtained from the National Cancer Institute (NCI) Developmental Therapeutics Program Chemical Repository (34). The FDA-approved anticancer drug set is available from the NCI Developmental Therapeutics Program. […] The stock solutions were prepared in dimethyl sulfoxide (DMSO, Sigma-Aldrich, St. Louis, MO, cat. D2650) at 800-fold the tested concentration and stored at -70 degrees C prior to their use. All drugs and investigational agents were tested over a range starting from a high concentration at or near the clinical Cmax and decreasing in half-log increments. If the clinical Cmax for an agent had not been determined, the highest concentration tested was 10 microM.
2.3 Cell Culture. All cells were maintained in an incubator at 37 degrees C and 5% CO2 with 95% humidity. The PDC lines were cultured according to standard operating procedures established by the NCI PDMR. All PDCs were thawed and cultured in Matrigel-coated flasks prepared with a working solution of 1X Ham's F-12 nutrient mix, without supplementation (Invitrogen, cat. 11765054), 100 U/mL penicillin-streptomycin (Invitrogen, cat. 15140122), and 2.5% Matrigel (Corning Inc., cat. 354248) for the first three passages. The 857933-349-R-J2-PDC line was cultured in 6C/Colon 1B media, which includes advanced DMEM/F-12 (Thermo Fisher Scientific, cat. 12634028), 10 mM HEPES (Thermo Fisher Scientific, cat. 15630080), 1X GlutaMAX supplement (Thermo Fisher Scientific, cat. 35050061), 0.1 mg/mL primocin (InvivoGen, cat. ant-pm-2), 10% defined fetal bovine serum, heat inactivated (HyClone Laboratories Inc., cat. SH30070.03HI), 50% L-WRN conditioned media (ATCC, cat. CRL-3276), 1.25 mM N-Acetyl-L-cysteine (Sigma-Aldrich, cat. A9165), 10 mM nicotinamide (Sigma-Aldrich, cat. N0636), 1X B-27 supplement (Thermo Fisher Scientific, cat. 17504044), 1X N-2 supplement (Thermo Fisher Scientific, cat. 17502048), 10 microM Y-27632 dihydrochloride (Tocris Bioscience, cat. 1254), and 50 ng/mL human EGF recombinant protein (Thermo Fisher Scientific, cat. PHG0311). The 485176-168-R4-J1-PDC line was cultured in Panc media, which includes all 6C/Colon 1B media components plus 100 ng/mL human FGF-10 (Thermo Fisher Scientific, cat. 100-26), 500 nM SB-431542 (Selleckchem, cat. S1067), and gastrin (Tocris, cat. 3006).
[…]
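Also: spheroids exposed to drugs for seven days.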

CC(C)(O)C1CCC(Nc2ccc3ncc(-c4cccc(C(F)(F)F)c4)n3n2)CC1 (stereo unspecified) + Cc1[nH]c2ccc(F)cc2c1-c1nc2c3cccnc3c3ncccc3c2[nH]1
558 nM: IC50 (curve of first compound, second compound 0.316 µM)
active: viability, T/C (second compound 3.16 µM, first compound 10 µM) 7.57% | viability, T/C (second compound 10 µM, first compound 10 µM) 10.8%
< 31.6 nM: IC50 (curve of first compound, second compound 1 µM) | IC50 (curve of first compound, second compound 3.16 µM) | IC50 (curve of first compound, second compound 10 µM)
2150 nM: IC50 (curve of first compound, second compound 0.0316 µM)
922 nM: IC50 (curve of first compound, second compound 0.1 µM)
inactive: viability, T/C (second compound 0.0316 µM, first compound 0.0316 µM) 78.5% | viability, T/C (second compound 0.0316 µM, first compound 0.1 µM) 68.9% | viability, T/C (second compound 0.0316 µM, first compound 0.316 µM) 72.2% | viability, T/C (second compound 0.0316 µM, first compound 1 µM) 54.3% | viability, T/C (second compound 0.0316 µM, first compound 3.16 µM) 46.7% | viability, T/C (second compound 0.0316 µM, first compound 10 µM) 48.8% | viability, T/C (second compound 0.1 µM, first compound 0.0316 µM) 73.3% | viability, T/C (second compound 0.1 µM, first compound 0.1 µM) 71% | viability, T/C (second compound 0.1 µM, first compound 0.316 µM) 75.6% | viability, T/C (second compound 0.1 µM, first compound 1 µM) 48.2% | viability, T/C (second compound 0.1 µM, first compound 3.16 µM) 42.2% | viability, T/C (second compound 0.1 µM, first compound 10 µM) 43.7% | viability, T/C (second compound 0.316 µM, first compound 0.0316 µM) 56.8% | viability, T/C (second compound 0.316 µM, first compound 0.1 µM) 61% | viability, T/C (second compound 0.316 µM, first compound 0.316 µM) 64.2% | viability, T/C (second compound 0.316 µM, first compound 1 µM) 39% | viability, T/C (second compound 0.316 µM, first compound 3.16 µM) 34.8% | viability, T/C (second compound 0.316 µM, first compound 10 µM) 40.9% | viability, T/C (second compound 1 µM, first compound 0.0316 µM) 46.4% | viability, T/C (second compound 1 µM, first compound 0.1 µM) 39.4% | viability, T/C (second compound 1 µM, first compound 0.316 µM) 40% | viability, T/C (second compound 1 µM, first compound 1 µM) 25.2% | viability, T/C (second compound 1 µM, first compound 3.16 µM) 26.6% | viability, T/C (second compound 1 µM, first compound 10 µM) 24.5% | viability, T/C (second compound 3.16 µM, first compound 0.0316 µM) 17.1% | viability, T/C (second compound 3.16 µM, first compound 0.1 µM) 14.1% | viability, T/C (second compound 3.16 µM, first compound 0.316 µM) 17.6% | viability, T/C (second compound 3.16 µM, first compound 1 µM) 16.2% | viability, T/C (second compound 3.16 µM, first compound 3.16 µM) 10.1% | viability, T/C (second compound 10 µM, first compound 0.0316 µM) 39.4% | viability, T/C (second compound 10 µM, first compound 0.1 µM) 38% | viability, T/C (second compound 10 µM, first compound 0.316 µM) 33.9% | viability, T/C (second compound 10 µM, first compound 1 µM) 30.9% | viability, T/C (second compound 10 µM, first compound 3.16 µM) 13.7%

COc1ccc([C@@H](O)c2cc(-c3ncnc4cc(N5CCOCC5)ccc34)c(F)cc2Cl)nn1
> 10000 nM: IC50 (curve of compound)
inactive: viability, T/C (compound 0.0316 µM) 91.6% and 98.8% and 86% | viability, T/C (compound 0.1 µM) 81% and 98.4% and 55% | viability, T/C (compound 0.316 µM) 95.6% and 97.8% and 80.1% | viability, T/C (compound 1 µM) 75.1% and 80.2% and 68.1% | viability, T/C (compound 3.16 µM) 75.5% and 68% and 68.3% | viability, T/C (compound 10 µM) 61.6% and 65.6% and 59.3%

CCc1c2c(nc3ccc(O)cc13)-c1cc3c(c(=O)n1C2)COC(=O)[C@]3(O)CC
> 316 nM: IC50 (curve of compound)
inactive: viability, T/C (compound 0.000999 µM) 98.6% and 89.7% and 104% | viability, T/C (compound 0.00316 µM) 93.7% and 94.5% and 92.8% | viability, T/C (compound 0.00999 µM) 120% and 88.8% and 82.7% | viability, T/C (compound 0.0316 µM) 89.3% and 117% and 90.7% | viability, T/C (compound 0.0999 µM) 98.1% and 103% and 110% | viability, T/C (compound 0.316 µM) 92.2% and 108% and 95.1%

CC(=O)O[C@H]1C(=O)[C@@]2(C)[C@H]([C@H](OC(=O)c3ccccc3)[C@]3(O)C[C@H](OC(=O)[C@H](O)[C@@H](NC(=O)c4ccccc4)c4ccccc4)C(C)=C1C3(C)C)[C@]1(OC(C)=O)CO[C@@H]1C[C@@H]2O
inactive: viability, T/C (compound 0.0316 µM) 84.1% and 80.2% and 104% | viability, T/C (compound 0.1 µM) 96.1% and 82.8% and 71.2% | viability, T/C (compound 0.316 µM) 82.9% and 80.8% and 85.8% | viability, T/C (compound 1 µM) 87.2% and 95.1% and 88.6% | viability, T/C (compound 3.16 µM) 99.2% and 101% and 86.8% | viability, T/C (compound 10 µM) 76.9% and 80.1% and 86.2%
> 10000 nM: IC50 (curve of compound)

C#Cc1c(F)ccc2cc(O)cc(-c3ncc4c(N5CC6CCC(C5)N6)nc(OCC56CCCN5CC(F)C6)nc4c3F)c12 (stereo unspecified)
> 10000 nM and 3140 nM and 2930 nM: IC50 (curve of compound)
inactive: viability, T/C (compound 0.0316 µM) 92.7% and 70.8% and 78.7% | viability, T/C (compound 0.1 µM) 73.1% and 96.4% and 89.9% | viability, T/C (compound 0.316 µM) 66.8% and 78.3% and 71.8% | viability, T/C (compound 1 µM) 87.9% and 83.5% and 69.9% | viability, T/C (compound 3.16 µM) 86.9% and 49.7% and 45.9% | viability, T/C (compound 10 µM) 68.2% and 36.4% and 44.5%

Cc1cccc(N(C)C(=O)C2C(O)CCN2c2nc(C)cc(C(F)(F)F)c2C#N)c1 (stereo unspecified)
inactive: viability, T/C (compound 0.0316 µM) 92.6% and 89.1% and 85.7% | viability, T/C (compound 0.1 µM) 69.5% and 106% and 83.8% | viability, T/C (compound 0.316 µM) 74.5% and 101% and 74.6% | viability, T/C (compound 1 µM) 94% and 109% and 85.7% | viability, T/C (compound 3.16 µM) 99.6% and 74.3% and 84.3% | viability, T/C (compound 10 µM) 111% and 91.5% and 99.2%
> 10000 nM: IC50 (curve of compound)

O=C(NO)c1cnc(N2CCN(S(=O)(=O)c3ccc4ccccc4c3)CC2)nc1
432 nM and 479 nM and 397 nM: IC50 (curve of compound)
inactive: viability, T/C (compound 0.0316 µM) 87% and 88.3% and 112% | viability, T/C (compound 0.1 µM) 108% and 125% and 89% | viability, T/C (compound 0.316 µM) 68.1% and 77.6% and 63.9%
1.97% and 0.86% and 8.3%: viability, T/C (compound 1 µM)
active: viability, T/C (compound 3.16 µM) 0.67% and 0.79% and 4.97% | viability, T/C (compound 10 µM) 1.35% and 1.12% and 3.62%

CC1COCCN1c1cc(C2(O)CC3CCC(C2)O3)c2cnn(-c3ccn[nH]3)c2n1 (stereo unspecified)
3920 nM and 6860 nM and 7560 nM: IC50 (curve of compound)
inactive: viability, T/C (compound 0.0316 µM) 98% and 89.3% and 74.2% | viability, T/C (compound 0.1 µM) 74.3% and 88.6% and 73.8% | viability, T/C (compound 0.316 µM) 65.7% and 71% and 68.6% | viability, T/C (compound 1 µM) 59.9% and 61.2% and 68.8% | viability, T/C (compound 3.16 µM) 56.3% and 54.3% and 63.9% | viability, T/C (compound 10 µM) 41.6% and 47.4% and 45.6%
